Data as given in publication PMC7827648 (Molecules, 2021).
Several values for one entry are separate records, joined by “and”; a condition that tells them apart may be missing. Equal values may be shown once.

Columns and labels:
[1] = test system: HCT116 (intestinal carcinoma) cells; assay: Cytotoxicity, MTT assay, HCT116 cells; type: cell-based; conditions: Homo sapiens, HCT-116, read-out: IC50, 50% inhibition of the cell population growth, 72 h, mean ± SD
Procedure: (§1) The cytotoxicity of the newly synthesized Schiff bases was evaluated in vitro in a panel of cultured tumor cells, assessing cell viability at scalar concentrations of the test compounds (≤500 μM) by MTT (i.e., 3-(4,5-dimethylthiazol-2-yl)-2,5-diphenyltetrazolium bromide) and Alamar Blue assays, using doxorubicin as the positive controls. Most of the compounds were tested against RD (rhabdomyosarcoma), HCT116 (intestinal carcinoma), HeLa (adenocarcinoma of the cervix uterus) and A549 (lung adenocarcinoma) cell lines, whereas five representative compounds of the subsets were tested also against K562 (chronic myelogenous leukemia) tumor cells.
(§2) The experiments were carried out in triplicate.

[2] = molecular target: T1, β-amyloid (Aβ)1–40 self-aggregation (Homo sapiens, UniProt P05067); assay: Inhibition of self-induced Aβ40 aggregation, thioflavin T fluorescence; type: biochemical; conditions: Aβ40 30 μM, 2% HFIP, ThT, mean ± SD (n = 3); for IC50: PBS pH 7.4, 2 h
T1 construct: self-aggregation of Aβ peptides 1–40 (Aβ40)
T1 sequence (P05067 672-711 limits assumed): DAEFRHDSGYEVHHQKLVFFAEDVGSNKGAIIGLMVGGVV
Procedure: Molecules able to inhibit simultaneously AChE and β-amyloid (Aβ) aggregation/neurotoxicity may have potential as drugs for the treatment of AD [14]. Herein, the new DHPPIQ derivatives were evaluated for the inhibitory effects on the self-aggregation of Aβ peptides 1–40 (Aβ40), through a test based on the measurement of thioflavin T (ThT) fluorescence. Quercetin, which is a strong inhibitor of in vitro Aβ self-aggregation, was used as a positive control.
Each compound was initially tested at a 100-μM concentration. […] […].
According to an already reported 96-well plate procedure, the test compounds at 100 μM were incubated with Aβ40 (30 μM) and 2% HFIP (1,1,1,3,3,3-hexafluoro-2-propanol), used as aggregation enhancer in PBS pH 7.4 for 2 h at room temperature. After the addition of ThT, the fluorescence was read at the 440/485 nm excitation/emission wavelength. Experiments were performed in triplicate, and the % inhibition values calculated as mean ± SD.

[3] = molecular target: T2, human butyrylcholinesterase (BChE) (Homo sapiens, UniProt P06276); assay: BChE inhibition, Ellman's method; type: biochemical; conditions: mean ± SD (n = 3), n.i. = no inhibition; for % inhibition hBChE: at 10 μM
T2 construct: BChE from human serum (50 U/mg); from tissue; host or cells: human serum
T2 sequence (P06276 29-602): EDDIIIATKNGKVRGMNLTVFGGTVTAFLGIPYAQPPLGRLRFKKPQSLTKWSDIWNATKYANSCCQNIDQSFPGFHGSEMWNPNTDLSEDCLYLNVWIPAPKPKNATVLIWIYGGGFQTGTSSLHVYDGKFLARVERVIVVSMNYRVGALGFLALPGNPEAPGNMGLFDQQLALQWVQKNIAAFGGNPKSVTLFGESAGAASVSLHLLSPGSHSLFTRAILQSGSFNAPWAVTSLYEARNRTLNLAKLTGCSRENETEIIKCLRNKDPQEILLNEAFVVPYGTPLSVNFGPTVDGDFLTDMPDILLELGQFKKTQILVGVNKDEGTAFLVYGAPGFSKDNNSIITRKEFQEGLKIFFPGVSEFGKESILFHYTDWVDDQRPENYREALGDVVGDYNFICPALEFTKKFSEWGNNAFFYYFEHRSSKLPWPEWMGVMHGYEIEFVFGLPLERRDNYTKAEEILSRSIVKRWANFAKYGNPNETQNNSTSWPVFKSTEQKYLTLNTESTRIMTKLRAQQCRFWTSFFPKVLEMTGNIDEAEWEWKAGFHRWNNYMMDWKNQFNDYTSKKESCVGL
Procedure: (§3) The ChE inhibition assay was carried out using the Ellman’s spectrophotometric method [23], as applied to the 96-well plate technique [24] on a Tecan Infinite M1000 Pro instrument (Cernusco s.N., Italy).

[4] = molecular target: human acetylcholinesterase (AChE) (Homo sapiens, UniProt P22303); assay: biochemical; conditions: for inhibition at 10 µM: mean ± SD (n = 3), read-out: % inhibition hAChE; for IC50: human recombinant AChE, pH 8.0, mean ± SD (n = 3), read-out: IC50 hAChE
Sequence of human acetylcholinesterase (AChE) (P22303 32-614): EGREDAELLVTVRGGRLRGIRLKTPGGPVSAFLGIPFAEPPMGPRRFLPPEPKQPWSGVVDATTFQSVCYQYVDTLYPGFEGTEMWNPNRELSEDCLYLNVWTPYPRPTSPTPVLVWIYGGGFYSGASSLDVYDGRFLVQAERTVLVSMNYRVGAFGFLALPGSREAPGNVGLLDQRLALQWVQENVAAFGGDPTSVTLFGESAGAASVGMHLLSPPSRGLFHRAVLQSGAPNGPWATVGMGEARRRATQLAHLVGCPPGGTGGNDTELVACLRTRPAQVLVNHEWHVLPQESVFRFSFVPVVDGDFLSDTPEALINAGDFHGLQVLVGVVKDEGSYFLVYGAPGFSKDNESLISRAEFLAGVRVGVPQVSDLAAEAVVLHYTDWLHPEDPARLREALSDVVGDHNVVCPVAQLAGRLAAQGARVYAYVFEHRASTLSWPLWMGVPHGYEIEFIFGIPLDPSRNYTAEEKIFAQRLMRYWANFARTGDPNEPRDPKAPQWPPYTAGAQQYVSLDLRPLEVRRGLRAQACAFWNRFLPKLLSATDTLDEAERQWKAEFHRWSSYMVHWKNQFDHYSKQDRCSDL
Procedure: as §3

[5] = test system: RD (rhabdomyosarcoma) cells; assay: Cytotoxicity, MTT assay, RD cells; type: cell-based; conditions: Homo sapiens, read-out: IC50, 50% inhibition of the cell population growth, 72 h, mean ± SD
Procedure: as §1, §2

[6] = test system: HeLa (adenocarcinoma of the cervix uterus) cells; assay: Cytotoxicity, MTT assay, HeLa cells; type: cell-based; conditions: Homo sapiens, read-out: IC50, 50% inhibition of the cell population growth, 72 h, mean ± SD
Procedure: as §1, §2

[7] = test system: K562 (chronic myelogenous leukemia) cells; assay: Cytotoxicity, Alamar Blue (resazurin) assay, K562 cells; type: cell-based; conditions: Homo sapiens, read-out: IC50, 50% inhibition of the cell population growth, 72 h, mean ± SD
Procedure: as §1, §2

[8] = test system: A549 (lung adenocarcinoma) cells; assay: Cytotoxicity, MTT assay, A549 cells; type: cell-based; conditions: Homo sapiens, read-out: IC50, 50% inhibition of the cell population growth, 72 h, mean ± SD
Procedure: as §1, §2

[9] = molecular target: T3, human MAO A (Homo sapiens, UniProt P21397); assay: biochemical; conditions: human recombinant MAO A, kynuramine, mean ± SD (n = 3); read-out: IC50 hMAO A
T3 construct: host or cells: baculovirus-infected insect cells (microsomes)
T3 sequence (P21397 1-527): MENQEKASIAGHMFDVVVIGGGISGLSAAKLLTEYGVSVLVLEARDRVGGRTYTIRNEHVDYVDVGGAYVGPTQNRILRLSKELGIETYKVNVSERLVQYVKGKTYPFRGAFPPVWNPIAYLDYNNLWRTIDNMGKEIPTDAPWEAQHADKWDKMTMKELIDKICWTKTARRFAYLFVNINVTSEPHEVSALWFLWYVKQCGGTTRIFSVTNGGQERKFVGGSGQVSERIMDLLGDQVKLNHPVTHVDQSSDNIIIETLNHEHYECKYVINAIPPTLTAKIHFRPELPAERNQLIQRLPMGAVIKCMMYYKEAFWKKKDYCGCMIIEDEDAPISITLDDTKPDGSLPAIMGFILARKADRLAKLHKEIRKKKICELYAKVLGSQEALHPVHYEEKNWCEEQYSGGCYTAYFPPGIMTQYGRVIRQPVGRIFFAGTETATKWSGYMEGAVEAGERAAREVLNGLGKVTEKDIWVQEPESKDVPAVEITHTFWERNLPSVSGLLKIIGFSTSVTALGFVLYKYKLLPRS
Procedure: (§4) The inhibition of human recombinant MAO A (250 U/mg) and B (59 U/mg; microsomes from baculovirus-infected insect cells) was evaluated using the reported 96-well plate technique [12]. on a Tecan Infinite M1000 Pro instrument (Cernusco s.N., Italy). […] After addition of the enzyme and 30 min of incubation, NaOH was added and the fluorescence read at the 310/400 excitation/emission wavelength.

[10] = molecular target: T4, human MAO B (Homo sapiens, UniProt P27338); assay: biochemical; conditions: at 10 μM, mean ± SD (n = 3); read-out: % inhibition hMAO B
T4 construct: host or cells: baculovirus-infected insect cells (microsomes)
T4 sequence (P27338 1-520): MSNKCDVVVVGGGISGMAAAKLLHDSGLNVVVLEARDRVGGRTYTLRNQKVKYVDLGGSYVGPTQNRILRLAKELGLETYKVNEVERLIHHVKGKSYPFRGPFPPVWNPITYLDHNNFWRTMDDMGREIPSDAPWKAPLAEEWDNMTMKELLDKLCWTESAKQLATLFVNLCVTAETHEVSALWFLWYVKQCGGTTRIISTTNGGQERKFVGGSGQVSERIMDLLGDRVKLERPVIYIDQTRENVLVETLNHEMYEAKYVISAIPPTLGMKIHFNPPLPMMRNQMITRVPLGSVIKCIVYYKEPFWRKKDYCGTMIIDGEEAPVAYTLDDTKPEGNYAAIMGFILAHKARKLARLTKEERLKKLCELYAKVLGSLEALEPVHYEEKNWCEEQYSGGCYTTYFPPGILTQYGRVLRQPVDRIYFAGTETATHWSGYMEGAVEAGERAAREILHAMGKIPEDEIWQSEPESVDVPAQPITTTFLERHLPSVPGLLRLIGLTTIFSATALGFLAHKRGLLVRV
Procedure: as §4

[11] = in vitro; conditions: human

SMILES | IC50 [1] [µM] | inhibition at 100 µM [2] [%] | % inhibition hBChE [3] | inhibition at 10 µM [4] [%] | IC50 [5] [µM] | IC50 [6] [µM] | IC50 [7] [µM] | IC50 [2] [µM] | IC50 [8] [µM] | IC50 [4] | IC50 [9] [µM] | inhibition at 10 µM [10] [%] | IC50 at 72 h [11] [µM] | inhibition at 10 µM ([3]; read-out: % inhibition hBChE) [%] | inhibition mechanism on hAChE ([4]; Michaelis-Menten / Lineweaver-Burk plots) | Ki ([4]; complete kinetics, human AChE, read-out: inhibition constant (Ki) hAChE) [µM]
COc1ccc(/N=C/c2c(-c3ccc(Cl)cc3)c3n(c2-c2ccccc2)CCc2cc(OC)c(OC)cc2-3)cc1 [Compound 10, (E)-1-(1-(4-chlorophenyl)-8,9-dimethoxy-3-phenyl-5,6-dihydropyrrolo[2,1-a]isoquinolin-2-yl)-N-(4-methoxyphenyl)methanimine] | 211 ± 9 | 42 ± 5 | n.i. | 35 ± 7 |  |  |  |  |  |  |  |  |  |  |  | 
CCOc1ccc(-c2c(/C=N/c3ccc(OC)cc3)cn3c2-c2cc(OCC)c(OCC)cc2CC3)cc1OCC [Compound 7, (E)-1-(1-(3,4-diethoxyphenyl)-8,9-diethoxy-5,6-dihydropyrrolo[2,1-a]isoquinolin-2-yl)-N-(4-methoxyphenyl)methanimine] | 38.5 ± 6.6 |  | n.i. |  | 132 ± 4 | 34.9 ± 1.8 | 171 ± 12 | 78 ± 5.1 | 79.5 ± 6.8 | 20.2 ± 3.1 µM |  |  |  |  |  | 
COc1cc2c(cc1OC)-c1c(-c3ccc(Cl)cc3)c(C=O)cn1CC2 [Compound 3] | 22 ± 4 |  | n.i. | 32 ± 3 | 17.6 ± 3.2 | 33 ± 4.5 |  | 66 ± 2.2 | 38.6 ± 3.2 |  |  |  |  |  |  | 
CCOc1ccc(-c2c(/C=N/c3ccc(/N=C/c4cn5c(c4-c4ccc(OCC)c(OCC)c4)-c4cc(OCC)c(OCC)cc4CC5)cc3)cn3c2-c2cc(OCC)c(OCC)cc2CC3)cc1OCC [Compound 13a, (1E,1’E)-N,N’-(1,4-phenylene)bis(1-(1-[3,4-diethoxyphenyl]-8,9-diethoxy-5,6-dihydropyrrolo[2,1-a]isoquinolin-2-yl)methanimine)-1,4-diaminium dichloride] | 103 ± 8 |  |  |  | 390 ± 19 | 205 ± 10 |  | 42 ± 3 | 240 ± 18 | 13 µM and 13.1 µM | 12.3 ± 1.1 | 31 ± 3 | 101 ± 6 | 11 ± 3 |  | 
COc1cc2c(cc1OC)-c1c(-c3ccc(Cl)cc3)c(C=O)c(-c3ccccc3)n1CC2 [Compound 4] | 252 ± 11 | 35 ± 6 | n.i. |  | 163 ± 20 | 109 ± 5 |  |  | 105 ± 11 | 7.9 ± 0.13 µM |  |  |  |  | noncompetitive/mixed-type mechanism | 3.58 ± 0.04
CCOc1ccc(-c2c(/C=N/CCCN(C)C)cn3c2-c2cc(OCC)c(OCC)cc2CC3)cc1OCC.Cl.Cl [Compound 16a, (E)-N^1-((1-[3,4-diethoxyphenyl]-8,9-diethoxy-5,6-dihydropyrrolo[2,1-a]isoquinolin-2-yl)methylene)-N^3,N^3-dimethylpropane-1,3-diaminium chloride] | 60.5 ± 0.7 | 48 ± 4 | n.i. | 32 ± 2 | 72.8 ± 4.6 | 63.1 ± 3.1 |  |  | 85.1 ± 0.2 |  |  |  |  |  |  | 
COc1cccc2c1C(=O)c1c(O)c3c(c(O)c1C2=O)C[C@@](O)(C(=O)CO)C[C@@H]3O[C@H]1C[C@H](N)[C@H](O)[C@H](C)O1 [Doxorubicin, reference compound] | 0.142 ± 0.011 |  |  |  | 0.29 ± 0.021 | 0.892 ± 0.013 | 1.75 ± 0.06 |  | 0.38 ± 0.021 |  |  |  |  |  |  | 
COc1cc2c(cc1OC)-c1c(-c3ccc(F)cc3)c(C=O)c(-c3ccccc3)n1CC2 [Compound 6] | 261 ± 13 |  |  |  | 91.1 ± 10.9 |  |  |  |  |  |  |  |  |  |  | 
COc1cc2c(cc1OC)-c1c(-c3ccc(F)cc3)c(C=O)cn1CC2 [Compound 5] | 32.2 ± 0.3 |  | n.i. | 33 ± 4 | 17.8 ± 0.4 | 33.8 ± 1 |  |  | 41.3 ± 2 |  |  |  |  |  |  | 
CC[C@@]1(O)C(=O)OCc2c1cc1n(c2=O)Cc2cc3ccccc3nc2-1 [Camptothecin, reference compound] |  |  |  |  |  |  |  |  |  |  |  |  | 0.272 ± 0.01 |  |  | 
CCOc1ccc(-c2c(/C=N/CC/N=C/c3cn4c(c3-c3ccc(OCC)c(OCC)c3)-c3cc(OCC)c(OCC)cc3CC4)cn3c2-c2cc(OCC)c(OCC)cc2CC3)cc1OCC [Compound 19, (1E,1’E)-N,N’-(ethane-1,2-diyl)bis(1-(1-(3,4-diethoxyphenyl)-8,9-diethoxy-5,6-dihydropyrrolo[2,1-a]isoquinolin-2-yl)methanimine)] | 401 ± 8 | 48 ± 3 | n.i. | 37 ± 2 | 65.1 ± 7.3 | 84 ± 1.3 | 290 ± 12 |  |  |  |  |  |  |  |  | 
COc1cc2c(cc1OC)-c1c(-c3ccc(Cl)cc3)c(/C=N/c3ccc(/N=C/c4c(-c5ccc(Cl)cc5)c5n(c4-c4ccccc4)CCc4cc(OC)c(OC)cc4-5)cc3)c(-c3ccccc3)n1CC2 [Compound 15a, (1E,1’E)-N,N’-(1,4-phenylene)bis(1-(1-[4-chlorophenyl]-8,9-dimethoxy-3-phenyl-5,6-dihydropyrrolo[2,1-a]isoquinolin-2-yl)methanimine)-1,4-diaminium dichloride] | 102 ± 5 |  | n.i. | 25 ± 3 | 149 ± 3 | 93.4 ± 2.6 | 251 ± 17 | 50 ± 6.3 | 120 ± 3.5 |  |  |  |  |  |  | 
